Laboratory results reported in patent publication US20240368694A1 (priority 2021, published 2024).

Columns and labels:
[1] = test system: miRNA expression profiles in liver and jejunum; set-up: species or system Sus scrofa; conditions: in vivo
miRNAs in serum = test system: miRNAs in serum; set-up: species or system Sus scrofa; conditions: in vivo
[2] = test system: ssc-miR-16, ssc-miR-128, ssc-miR-205 and ssc-miR-451 in serum; set-up: species or system Sus scrofa; conditions: in vivo
[3] = pigs, cited from earlier work
[4] = test system: serum interleukins IL1β, IL-8, IL-13, tumor necrosis factor or interferon-gamma; conditions: pigs, 3.3-3.8 ppm DON in feed (Pasternak et al. 2018); cited from earlier work
[5] = test system: insulin like growth factor 1 (IGF1); conditions: serum levels of growth hormones (Wang et al. 2019; Wu et al. 2013, 2015); cited from earlier work

SMILES: CC1=C[C@H]2O[C@@H]3[C@H](O)C[C@](C)([C@@]2(CO)[C@H](O)C1=O)[C@]31CO1 [DON, (3α,7α)-3,7,15-trihydroxy-12,13-epoxytrichothec-9-en-8-one]
- differentially expressed miRNAs in liver, Control vs DON high [1]: one differentially expressed miRNA, namely ssc-miR-10b
- differentially expressed miRNAs in tissues, Control vs DON low [1]: no differentially expressed miRNAs
- effect on the miRNA expression profiles in liver and jejunum [1]: did not exhibit a strong effect
- number of serum miRNAs significantly altered in both DON low and DON high (miRNAs in serum): eight
- number of serum miRNAs significantly altered, DON high vs Control (miRNAs in serum): 16
- number of serum miRNAs significantly altered, DON low vs Control (miRNAs in serum): 15
- ssc-let-7a Log2 fold vs Control, DON high (miRNAs in serum): −0.502
- ssc-let-7a Log2 fold vs Control, DON low (miRNAs in serum): n.s.
- ssc-let-7f-5p Log2 fold vs Control, DON high (miRNAs in serum): −0.503
- ssc-let-7f-5p Log2 fold vs Control, DON low (miRNAs in serum): n.s.
- ssc-let-7g Log2 fold vs Control, DON high (miRNAs in serum): 0.662
- ssc-let-7g Log2 fold vs Control, DON low (miRNAs in serum): n.s.
- ssc-miR-10a-5p Log2 fold vs Control, DON high (miRNAs in serum): n.s.
- ssc-miR-10a-5p Log2 fold vs Control, DON low (miRNAs in serum): −0.806
- ssc-miR-10b Log2 fold vs Control, DON high (miRNAs in serum): −0.754
- ssc-miR-10b Log2 fold vs Control, DON low (miRNAs in serum): −1.129
- ssc-miR-10b direction of change in serum upon DON treatment (miRNAs in serum): down-regulated
- ssc-miR-16 Log2 fold vs Control, DON high (miRNAs in serum): 0.773
- ssc-miR-16 Log2 fold vs Control, DON low (miRNAs in serum): 1.217
- ssc-miR-16 direction of change in serum of DON exposed pigs (miRNAs in serum): up-regulated
- ssc-miR-17-5p Log2 fold vs Control, DON high (miRNAs in serum): 1.194
- ssc-miR-17-5p Log2 fold vs Control, DON low (miRNAs in serum): n.s.
- ssc-miR-92a Log2 fold vs Control, DON high (miRNAs in serum): 0.476
- ssc-miR-92a Log2 fold vs Control, DON low (miRNAs in serum): n.s.
- ssc-miR-92b-3p Log2 fold vs Control, DON high (miRNAs in serum): n.s.
- ssc-miR-92b-3p Log2 fold vs Control, DON low (miRNAs in serum): −1.058
- ssc-miR-99b Log2 fold vs Control, DON high (miRNAs in serum): −1.226
- ssc-miR-99b Log2 fold vs Control, DON low (miRNAs in serum): −1.393
- ssc-miR-99b direction of change in serum upon DON treatment (miRNAs in serum): down-regulated
- ssc-miR-103 Log2 fold vs Control, DON high (miRNAs in serum): −0.630
- ssc-miR-103 Log2 fold vs Control, DON low (miRNAs in serum): n.s.
- ssc-miR-107 Log2 fold vs Control, DON high (miRNAs in serum): −0.619
- ssc-miR-107 Log2 fold vs Control, DON low (miRNAs in serum): n.s.
- ssc-miR-126-5p Log2 fold vs Control, DON high (miRNAs in serum): n.s.
- ssc-miR-126-5p Log2 fold vs Control, DON low (miRNAs in serum): −1.298
- ssc-miR-128 Log2 fold vs Control, DON high (miRNAs in serum): 0.887
- ssc-miR-128 Log2 fold vs Control, DON low (miRNAs in serum): 1.124
- ssc-miR-128 direction of change in serum of DON exposed pigs (miRNAs in serum): up-regulated
- ssc-miR-148a-3p Log2 fold vs Control, DON high (miRNAs in serum): 0.521
- ssc-miR-148a-3p Log2 fold vs Control, DON low (miRNAs in serum): n.s.
- ssc-miR-192 Log2 fold vs Control, DON high (miRNAs in serum): −0.928
- ssc-miR-192 Log2 fold vs Control, DON low (miRNAs in serum): −1.133
- ssc-miR-192 direction of change in serum upon DON treatment (miRNAs in serum): down-regulated
- ssc-miR-205 Log2 fold vs Control, DON high (miRNAs in serum): 5.102
- ssc-miR-205 Log2 fold vs Control, DON low (miRNAs in serum): 5.774
- ssc-miR-205 direction of change in serum of DON exposed pigs (miRNAs in serum): up-regulated
- ssc-miR-339-5p Log2 fold vs Control, DON high (miRNAs in serum): n.s.
- ssc-miR-339-5p Log2 fold vs Control, DON low (miRNAs in serum): 1.346
- ssc-miR-339 Log2 fold vs Control, DON high (miRNAs in serum): n.s.
- ssc-miR-339 Log2 fold vs Control, DON low (miRNAs in serum): 1.345
- ssc-miR-361-3p Log2 fold vs Control, DON high (miRNAs in serum): n.s.
- ssc-miR-361-3p Log2 fold vs Control, DON low (miRNAs in serum): 2.023
- ssc-miR-374a-3p Log2 fold vs Control, DON high (miRNAs in serum): −1.443
- ssc-miR-374a-3p Log2 fold vs Control, DON low (miRNAs in serum): −1.271
- ssc-miR-374a-3p direction of change in serum upon DON treatment (miRNAs in serum): down-regulated
- ssc-miR-451 Log2 fold vs Control, DON high (miRNAs in serum): 0.808
- ssc-miR-451 Log2 fold vs Control, DON low (miRNAs in serum): 1.375
- ssc-miR-451 direction of change in serum of DON exposed pigs (miRNAs in serum): up-regulated
- ssc-miR-1388 Log2 fold vs Control, DON high (miRNAs in serum): n.s.
- ssc-miR-1388 Log2 fold vs Control, DON low (miRNAs in serum): −1.281
- ssc-miR-16 normalized Cq-value log 2 fold change in the DON groups compared to the Control [2]: increased
- ssc-miR-16 qPCR log2 fold change, DON_high vs Control [2]: 2.227
- ssc-miR-16 qPCR log2 fold change, DON_low vs Control [2]: 3.504
- ssc-miR-128 normalized Cq-value log 2 fold change in the DON groups compared to the Control [2]: increased
- ssc-miR-128 qPCR log2 fold change, DON_high vs Control [2]: 1.879
- ssc-miR-128 qPCR log2 fold change, DON_low vs Control [2]: 3.885
- ssc-miR-205 normalized Cq-value log 2 fold change in the DON groups compared to the Control [2]: increased
- ssc-miR-205 qPCR log2 fold change, DON_high vs Control [2]: 2.455
- ssc-miR-205 qPCR log2 fold change, DON_low vs Control [2]: 4.973
- ssc-miR-451 normalized Cq-value log 2 fold change in the DON groups compared to the Control [2]: increased
- ssc-miR-451 qPCR log2 fold change, DON_high vs Control [2]: 1.835
- ssc-miR-451 qPCR log2 fold change, DON_low vs Control [2]: 2.663
- doses of DON in feed starting from which feed consumption and weight gain decrease ([3]; EFSA summary of multiple feeding trials): 0.6-2.0 ppm
- effect on body weight at 3 ppm DON ([3]; exposure to 3 ppm DON (Grenier et al. 2011, 2013)): does not necessarily result in significant effects on body weight
- effect on serum interleukins IL1β, IL-8, IL-13, tumor necrosis factor or interferon-gamma [4]: had no effect
- dietary DON concentrations at which a decrease of serum IGF1 was reported [5]: ≥ 3 ppm
